From patent EP2676666A1, “Compounds for use in diagnosis or therapy of vulnerable atherosclerotic plaques” (Eidgenössische Technische Hochschule Zürich (ETH), priority 2012, dated 2013) come the findings set out here.

The test system of the assay is human atherosclerotic plaques. Put plainly: Autoradiography binding study on human atherosclerotic plaque sections. Conditions: 2.5 nM; for maximal bound ^11C-Compound 4: average value (red line), 20 min, room temperature, values normalized to vulnerable plaque 8. As to the method:
Compound 4 was labeled with ^11C (specific activity ~350 GBq/µmol) and human atherosclerotic sections were incubated with 2.5 nM for 20 min, room temperature. Nonspecific binding was determined in the presence of excess nonradioactive Compound 4 (100 µM). After washing to remove unspecific bound ^11C-Compound 4, slides were exposed to a radiosensitive film (BAS-5000 Fujifilm) for 30 min. Calibration standards (2.5 - 0.02 nM) were included in the cassette. Films were developed using an automatic film processor (BAS 5000, Fuji) Quantitative analysis was performed using a computerized image analysis system (AIDA Image Analyzer Software). Optical density readings, corrected for background, were made and values standardized against the linear portion of a curve generated using standards and expressed as maximal bound ^11C-Compound 4. Values were normalized to patient "vulnerable plaque 8" (Fig. 5).

`[11CH3]N1CCC(NC(=O)c2ccc(-n3nc4c5cccc(F)c5[nH]nc-4c3=O)cc2)CC1` [^11C-Compound 4]: the “maximal bound ^11C-Compound 4” value (Fig. 5 (B)) was determined as 0.7; the “maximal bound ^11C-Compound 4” value (Fig. 5 (C), stable plaques) turned out to be 0.15; the “maximal bound ^11C-Compound 4” value (Fig. 5 (C), vulnerable plaques) was 1.2. Further, for the setting “conclusion in words from the autoradiography”, the “binding to vulnerable plaques compared to stable plaques” value is listed as “higher affinity to vulnerable plaques compared to stable plaques”.
